Data on 6 compounds can be found in patent US20260327211A1, “MODULATORS OF A POTASSIUM CHANNEL AND OF TRPV1 CHANNEL AND USES THEREOF” (Bsense Bio Therapeutics Ltd., priority 2023, published 2026).

Converted amounts (≈) assume the structure as drawn. Where two headings read alike, the source gives them in different places. Some results are limits rather than exact numbers.

The nature of data set [1]: Human liver microsome metabolic stability. The data set is classed as in vitro ADME. To be noted: human liver microsomes; for half-life at 1 µM: human, liver microsomes, read-out: HLM T1/2; for HLM T1/2: 1 µM. The source says: Liver microsomes which are subcellular particles derived from endoplasmic reticulum of hepatic cells were used for evaluating the tested compounds. These particles are rich in drug metabolizing enzymes, including the cytochrome p-450 family. Liver microsomes are a recommended test system for various in vitro drug metabolism and pharmacokinetics (DMPK) studies. CLint values lower than […] are considered suitable for drug development.
Liver Microsome Metabolic Stability Assay (NADPH): The liver microsome stability assay was evaluated through pre-incubation with HLMs. A liver microsome mixture (pooled from multiple donors) at a concentration of 0.5 mg/mL, and the test compound at a concentration of 1 μM, were warmed in the presence of a NADPH regenerating system (about 1.0 mM) at 37° C. Positive controls, including testosterone (a CYP3A4 substrate), propafenone (a CYP2D6 substrate), and diclofenac (a CYP2C9) substrate, were concurrently incubated with the HLMs, in the presence of the NADPH regenerating system (1.0 mM). Samples were extracted during incubation at multiple intervals: 0, 5, 15, 30, 45 and 60 minutes. To terminate the reactions, the samples were promptly mixed with cooled acetonitrile that included an internal standard (IS). An additional compound was incubated with the HLMs in the absence of the NADPH regeneration system, from which a sample was taken at the 60-minute interval.
The clearance of the test compound in the samples was subsequently analyzed by LC-MS/MS based on the peak area ratios of the analyte to the IS.
The following equation was used to calculate the microsome clearance: […]
Liver weight: 40 grams/kg, 30 grams/kg, 32 grams/kg, 20 grams/kg and 88 grams/kg, for rat, monkey, dog, human and mouse, respectively.

The subject of the next data set is CYP3A4. The data set can be described thus: CYP inhibition / time-dependent inhibition, CYP3A4_Midazolam. To be noted: role: inhibitor; substrate midazolam 2.0 μM; CYP TDI ratio. The data set is classed as in vitro ADME, human. The method, then:
The time-dependent inactivation potency of the test compound to CYP enzymatic activities was assessed by the pre-incubation of the human liver microsomes with the test compound in the presence and absence of NADPH, followed by the incubation with the discrete marker substrates, as follows.
Pre-incubation with human liver microsomes (HLMs): The TDI inactivation potency on CYP enzymatic activities was evaluated through pre-incubation with HLMs (Corning). A liver microsome mixture at a concentration of 0.1 mg/mL, and the test compound at 8 different concentrations (0, 0.05, 0.165, 0.5, 1.65, 5.0, 16.5, or 50.0 μM) was warmed at 37° C. for 10 minutes. Concurrently, a set of known time-dependent inactivators was also prepared in duplicate for comparison. Following this, NADPH (1.0 mM) was added to one group (Group 1), and an equal volume of potassium phosphate buffer to the second group (Group 2), marking the beginning of a 30-minute pre-incubation at 37° C.
Incubation: After pre-incubation, the marker substrate, or marker substrate plus NADPH was added to the mixture, thereby initiating the incubation. The duration of the incubation was dependent on the type of CYP isoform being evaluated. For example, with the CYP3A isoform, the mixture was incubated over 3 minutes utilizing midazolam as the marker substrate (2.0 μM), verapamil as the standard inactivator (3.5 μM).
Termination of Reaction: Following the incubation, ice-cooled acetonitrile containing the internal standard (IS) was added to halt the reactions. Metabolites generated from the marker substrates were then measured via LC-MS/MS, assessed based on peak area ratios of the analyte to IS.

The nature of data set [2]: Log D, 1-octanol/buffer shake flask. To be noted: pH 7.4. It is filed as physicochemical. The method, then: The Log D assay was a miniaturized 1-octanol/buffer shake flask method followed by LC/MS/MS analysis, as follows.
The test compounds or control compounds Nadolol, Chlorpromazine Hydrochloride and Propranolol Hydrochloride were dissolved in 100% DMSO to obtain 10 mM solutions, which were transferred to 96-well polypropylene cluster tubes; 2 μL/well. 1-octanol saturated with 0.1 M phosphate buffer (149 μL/well) and 0.1 M phosphate buffer saturated with 1-octanol (149 μL/well) were added to the tubes, respectively, and each tube was vigorously mixed for 2 minutes and then shaked at a speed of 800 rpm at room temperature for 1 hour, followed by centrifugation at 4000 rpm for 5 minutes at room temperature. Thereafter, for the test compounds and the Chlorpromazine Hydrochloride and Propranolol Hydrochloride, the sample of the buffer layer was diluted by a factor of 50-fold and the sample of 1-octanol layer was diluted by a factor of 2000-fold with internal standard (IS) solution. For Nadolol, the sample of the buffer layer was diluted by a factor of 1000-fold and the sample of 1-octanol layer was diluted by a factor of 400-fold with internal standard (IS) solution. The samples were analyzed using a triple quadrupole mass spectrometer. Peak areas were corrected by dilution factors and embedded internal standard, and the ratio of the corrected peak areas was used to calculate the Log D value. The Log D value for each compound will be calculated by the following equation: […]

A further data set can be described thus: Kinetic solubility. The settings on record: hhbs buffer, aqueous buffer, Table 1; read-out: Kinetic Sol. It is filed as physicochemical. The method, then:
Solubility measurements were performed prior to each in vitro assay to ensure accurate dose response and reproducibility. Briefly, each compound was dissolved to 60 mM in DMSO and calibration curve was performed from 1.5-200 μM using absorbance spectra analysis and determination of λmax. Calibration curve served as the readout for all following assays. The 60 mM stock solution was used to make a 120 μM target concentration of 0.2% DMSO in the appropriate buffer of the in vitro related assay (i.e. HHBS buffer). Solubilized compounds were vortex for 10 minutes followed by centrifugation for 15 minutes in 5000 RPM and the supernatant was recovered for absorbance spectra analysis between 200-400 nm.

The next data set deals with T1, hKv7.2/3 (Homo sapiens, UniProt O43525+O43526).
T1 construct: host or cells: CHO
Kind of data set: Kv7.2/7.3 HCS, FLIPR potassium (thallium) assay, CHO/hKv7.2/3. It is filed as cell-based. To be noted: Table 1; read-out: Kv7.2/7.3 IC50. The method, then:
Cell culture: Chinese hamster ovary (CHO) cell-line cells with a constitutive expression of human Kv7.2/3 channels (B'SYS GmbH, Switzerland) were cultured in F-12 nutrient mixture (Biological Industries) supplemented with 10% fetal bovine serum (Biological Industries) and 1% penicillin-streptomycin (Biological Industries) in a humidified 5% CO2 incubator at 37° C. To maintain the stability of human Kv7.2/7.3 expression antibiotic selection was added (Puromycin 5 μg/ml).
High content screen (HCS) using FLIPR Potassium Assay Kit: A FLIPR Potassium Assay Kit (R8222 FLIPR Potassium Assay Explorer Kits, Molecular Devices) was used with the CHO/hKv7.2/3 cell line to screen molecules against the hKv7.2/7.3 ion channel target. The assay exploits the permeability of thallium ions (Tl+) through potassium (K+) channels. In this assay, Tl+ indicator dye is used to produce a bright fluorescent signal upon the binding to Tl+ conducted through the potassium channels. The intensity of the Tl+ signal is proportional to the number of potassium channels in the open state. Therefore, it provides a functional indication of the potassium channel activity. To activate the voltage-gate potassium channels, the cells were stimulated with a mixture of K+ and Tl+ to depolarize the cell membrane. The fluorescence increase in the assay represents the influx of Tl+ into the cell specifically through the potassium channel, providing a functional read-out of hKv7.2/3 activity using a fluorescent plate reader coupled with injectors used to activate the channels.
According to optimization process to achieve uniform and consistent screening conditions the following protocol was established: Cells were seeded in 384-well, black-walled, clear-bottomed Greiner #781091, at a density of 5000 cells per well 24 hours before the assay conductance and incubated overnight in their normal growth medium. On the experiment day the medium was replaced with HBSS, HEPES, and the test compound/vehicle (0.2% DMSO). Dye solution (prepared according to the manufacturer) was added to the plates, which were incubated for 1.5 h light-protected in room temperature. Tecan Spark reader plate injectors were primed with Tl+(1 mM Tl2SO4) or Tl++K+(1 mM Tl2SO4; 5 mM K2SO4) for channel activation and data correction. […] To calculate EC50 values, the data was fitted to sigmoidal regression using Prism GraphPad. The fitting was constrained to a minimum of 1 and a maximal response of about 3.6 unless a different maximal response could be clearly identified.

The next data set addresses T2, hTRPV1 (Homo sapiens, UniProt Q8NER1).
T2 construct: CDS of NM_080704.4, inserted into the multiple cloning site of pcDNA3.1(+); host or cells: CHO/hKv7.2/3
The data set can be described thus: TRPV1 HCS, Fluo-8 calcium flux, capsaicin activation, CHO cells expressing hTRPV1. It is filed as cell-based. To be noted: cells expressing TRPV1; read-out: TRPV1 IC50. The method, then:
Cell culture: Chinese hamster ovary (CHO) cell-line cells with constitutive expression of human hTRPV1 channels (B'SYS GmbH, Switzerland) were cultured in F-12 nutrient mixture (Biological Industries) supplemented with 10% fetal bovine serum (Biological Industries) and 1% penicillin-streptomycin (Biological Industries) in a humidified 5% CO2 incubator at 37° C. To maintain the stable expression of hTRPV1, antibiotic selection (G418 500 μg/ml) was applied.
High content screen (HCS) using Fluo-8 No Wash Calcium flux Assay Kit: Fluo-8 No Wash Calcium Assay Kit (Abcam, ab112129) was used with CHO stably or transiently expressing TRPV1 to screen compounds against the hTRPV1 ion channel target. The cells were pre-loaded with Fluo-8AM which is membrane permeable. The AM groups of the Fluo-8AM were then being cleaved by intracellular esterase, trapping the Fluo8 in the cell. […] The relative fluorescence signal was calculated following background subtraction, comparing the fluorescence at each time point to its maximal level measured following Ionomycin application in the end.
According to optimization process to achieve uniform and consistent screening condition of molecules the following protocol was established: Cells were seeded in 384-well, black-walled, clear-bottomed, at a density of 5,000 cells per well 24 h before the assay conductance and incubated overnight in their normal growth medium. On the experiment day the medium was replaced in each well with HBSS, HEPES, and compound/vehicle (0.2% DMSO). Dye solution (prepared according to the manufacturer) was added to the wells and plates are incubated for 1.5 h light-protected in room temperature. The Tecan Spark plate reader injectors were then primed with capsaicin and Ionomycin for channel activation and data normalization, respectively. […] To calculate IC50 values, the data was fitted to sigmoidal regression line using Prism GraphPad. The fitting was constrained to a minimum of 0 and a maximal response of about 1 unless a different maximal response could be identified.

[3] abbreviates: 1-octanol/phosphate buffer, read-out: LogD.

T2 sequence (Q8NER1 whole entry): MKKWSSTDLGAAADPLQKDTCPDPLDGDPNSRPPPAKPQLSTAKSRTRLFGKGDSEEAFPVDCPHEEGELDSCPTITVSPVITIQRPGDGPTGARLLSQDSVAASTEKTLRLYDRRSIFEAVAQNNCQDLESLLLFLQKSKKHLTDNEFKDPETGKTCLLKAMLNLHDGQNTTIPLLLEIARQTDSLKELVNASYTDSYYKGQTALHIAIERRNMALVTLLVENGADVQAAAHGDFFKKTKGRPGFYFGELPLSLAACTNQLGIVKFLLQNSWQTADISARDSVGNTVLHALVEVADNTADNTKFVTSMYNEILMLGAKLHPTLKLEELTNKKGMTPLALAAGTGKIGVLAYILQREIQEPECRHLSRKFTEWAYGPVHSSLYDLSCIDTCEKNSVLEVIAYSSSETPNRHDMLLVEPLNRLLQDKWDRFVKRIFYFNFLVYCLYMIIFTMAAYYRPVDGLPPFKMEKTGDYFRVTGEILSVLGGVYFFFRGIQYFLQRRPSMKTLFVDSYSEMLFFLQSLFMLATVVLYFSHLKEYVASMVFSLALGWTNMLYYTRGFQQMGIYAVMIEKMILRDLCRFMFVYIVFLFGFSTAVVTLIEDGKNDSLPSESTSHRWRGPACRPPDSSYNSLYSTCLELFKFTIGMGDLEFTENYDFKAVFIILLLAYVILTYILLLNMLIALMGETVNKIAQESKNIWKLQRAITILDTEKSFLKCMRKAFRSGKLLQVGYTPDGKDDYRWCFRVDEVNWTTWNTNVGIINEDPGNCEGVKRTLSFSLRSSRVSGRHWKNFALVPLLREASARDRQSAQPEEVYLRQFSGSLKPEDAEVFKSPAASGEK
T1 sequence (O43525 whole entry): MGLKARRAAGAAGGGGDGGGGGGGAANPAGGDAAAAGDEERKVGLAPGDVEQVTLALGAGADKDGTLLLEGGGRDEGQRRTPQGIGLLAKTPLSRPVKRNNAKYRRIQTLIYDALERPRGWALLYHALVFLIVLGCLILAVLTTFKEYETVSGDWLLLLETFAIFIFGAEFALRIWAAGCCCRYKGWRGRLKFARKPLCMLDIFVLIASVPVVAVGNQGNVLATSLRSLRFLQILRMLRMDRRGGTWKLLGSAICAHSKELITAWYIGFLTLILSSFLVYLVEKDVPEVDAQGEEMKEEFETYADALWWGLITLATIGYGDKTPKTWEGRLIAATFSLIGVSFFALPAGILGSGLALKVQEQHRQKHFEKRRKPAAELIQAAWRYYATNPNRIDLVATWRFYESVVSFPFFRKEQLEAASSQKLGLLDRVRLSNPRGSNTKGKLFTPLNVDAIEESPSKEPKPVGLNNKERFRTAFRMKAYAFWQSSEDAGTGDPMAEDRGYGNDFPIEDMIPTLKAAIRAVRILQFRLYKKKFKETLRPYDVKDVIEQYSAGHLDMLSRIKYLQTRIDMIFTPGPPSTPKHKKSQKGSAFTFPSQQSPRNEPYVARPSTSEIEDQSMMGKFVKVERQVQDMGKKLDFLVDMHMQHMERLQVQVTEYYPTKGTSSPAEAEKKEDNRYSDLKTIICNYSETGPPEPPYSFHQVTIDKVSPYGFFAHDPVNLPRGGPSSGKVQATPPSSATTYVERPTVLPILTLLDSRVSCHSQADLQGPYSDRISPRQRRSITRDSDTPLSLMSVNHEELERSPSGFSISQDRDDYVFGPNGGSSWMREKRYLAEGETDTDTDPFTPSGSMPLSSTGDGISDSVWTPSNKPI
T1 sequence (O43526 whole entry): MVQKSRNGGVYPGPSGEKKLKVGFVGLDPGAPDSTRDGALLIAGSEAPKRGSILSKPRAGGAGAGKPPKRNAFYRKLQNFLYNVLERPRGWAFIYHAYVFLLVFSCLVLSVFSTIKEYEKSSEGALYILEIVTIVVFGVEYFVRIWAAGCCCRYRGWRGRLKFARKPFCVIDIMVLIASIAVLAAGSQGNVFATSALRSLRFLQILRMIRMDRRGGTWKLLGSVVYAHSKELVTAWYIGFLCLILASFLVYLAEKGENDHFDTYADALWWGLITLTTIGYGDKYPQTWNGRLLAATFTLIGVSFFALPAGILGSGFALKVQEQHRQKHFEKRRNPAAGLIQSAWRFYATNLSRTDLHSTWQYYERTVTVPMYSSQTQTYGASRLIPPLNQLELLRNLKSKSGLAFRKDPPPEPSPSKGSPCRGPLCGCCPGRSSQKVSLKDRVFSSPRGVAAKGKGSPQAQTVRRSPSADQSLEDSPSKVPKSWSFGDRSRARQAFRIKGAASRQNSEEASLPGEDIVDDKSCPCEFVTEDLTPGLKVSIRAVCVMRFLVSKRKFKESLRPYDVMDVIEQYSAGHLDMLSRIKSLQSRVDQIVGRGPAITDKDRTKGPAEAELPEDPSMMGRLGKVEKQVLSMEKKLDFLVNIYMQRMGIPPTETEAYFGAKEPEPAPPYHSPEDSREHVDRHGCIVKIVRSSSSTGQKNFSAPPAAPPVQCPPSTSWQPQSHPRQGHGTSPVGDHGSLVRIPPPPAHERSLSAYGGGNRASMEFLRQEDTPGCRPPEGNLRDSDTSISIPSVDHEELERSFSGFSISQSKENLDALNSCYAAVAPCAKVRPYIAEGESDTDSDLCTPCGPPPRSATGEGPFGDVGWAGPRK

On to `O=C(Cc1cncc(-n2cc(C3CC3)c3cc(Cl)cc(Cl)c32)c1)N[C@@H]1COC[C@H]1O` [Compound 790], for which, in data set [1], the half-life at 1 µM worked out at 26.7 min. In addition, the “CYP-TDI (midazolam), (−)NADPH/(+)NADPH Ratio CYP3A4” value in the data set with CYP3A4 was determined as 2.04. The logD in data set [2] (setting [3]) turned out to be 4.29.

Regarding `CC(C)(C)c1cn(-c2cncc(CC(=O)N[C@@H]3COC[C@H]3O)c2)c2c(Cl)cc(Cl)cc12` [Compound 800], the half-life at 1 µM in data set [1] turned out to be 15.4 min. For the same compound, the “CYP-TDI (midazolam), (−)NADPH/(+)NADPH Ratio CYP3A4” value with CYP3A4 is reported as greater than 2.67. Moreover, in data set [2] (setting [3]), the pH-dependent lipophilicity (logD) was greater than 4.1.

In the case of `O=C(Cc1cncc(-n2cc(C(F)(F)F)c3cc(Cl)cc(Cl)c32)c1)N[C@@H]1COC[C@H]1O` [Compound 770], the half-life at 1 µM in data set [1] is 34.8 min. The “CYP-TDI (midazolam), (−)NADPH/(+)NADPH Ratio CYP3A4” value with CYP3A4 is on record as greater than 1.9. The logD in data set [2] (setting [3]) worked out at 3.88.

Take `CC1(C)CN(c2cncc(CC(=O)NC3COCC3O)c2)c2c(Cl)cc(Cl)cc21` (centres unmarked) [Compound 720]: the “HLM T1/2” value in data set [1] is on record as 6.1 min. Also, the “CYP-TDI (midazolam), (−)NADPH/(+)NADPH Ratio CYP3A4” value in the data set with CYP3A4 is listed as greater than 1.6. In data set [2], this compound displayed a logD of 3.24.

Consider `O=C(Cc1cncc(-n2cc(Cl)c3cc(Cl)cc(Cl)c32)c1)NCCO` [Compound 649], for which the solubility kinetic in “Kinetic solubility” was found to be 10 µM (≈ 3.99 µg/mL). For the same compound, the EC50 at hKv7.2/3 amounted to 5.2 µM. For the same compound, the microsomal CLint at 1 µM in data set [1] (read-out: HLM Clint) turned out to be 27.3 µL/min/mg. Besides, the logD in data set [2] (setting [3]) was 4.19. Also, the 50% inhibitory concentration (IC50) on hTRPV1 was found to be 3.3 µM.

Consider `O=C(Cc1cncc(N2CC3(CC3)c3cc(Cl)cc(Cl)c32)c1)NC1COCC1O` (centres unmarked) [Compound 730], for which the “HLM T1/2” value in data set [1] is on record as 9.9 min. Moreover, the “CYP-TDI (midazolam), (−)NADPH/(+)NADPH Ratio CYP3A4” value in the data set with CYP3A4 is on record as greater than 1.57. The logD in data set [2] turned out to be 3.22.
